Values belong to the compound of their own block, whether it stands above or below them.
Legend:
[1] = Stability of the analytes in SD rat plasma (QC samples); type: in vitro ADME; conditions: 24 h after pretreatment, three freeze (−80 °C)/thaw (room temperature) cycles, 30 days at −80 °C
Description: The stabilities of the analytes in the SD rat plasma were investigated using the QC sample solutions stored under different temperature conditions for different periods of time which likely to be encountered during sample storage and the analytical process. The QC samples were tested for post-treatment, three freeze-thaw cycles and long-term stabilities. The post-treatment was evaluated by placing the QC samples in the autosampler for 24 h. And for freeze-thaw cycle stability assessment, the QC samples were repeatedly freezed and thawed for three cycles at −80 °C to 20 °C. The long-term stability was carried out via placing the QC samples at −80 °C for at least 30 days.

[2] = Pharmacokinetics in rat plasma after intragastric administration, normoxia (UPLC-MS/MS); type: in vivo, Sprague-Dawley rats; conditions: mean ± SD; for clearance / Cmax / Tmax / half-life: n = 6; for Cmax / Tmax / half-life / AUC(0-t) / MRT last: male, Sprague-Dawley, rat, plasma, po; for AUC(0-t): n = 6, read-out: AUC(0→24 h) (converted); for MRT last: n = 6, read-out: MRT(0→24 h) (converted)
Description: (§1) Male Sprague-Dawley (SD) rats (250 g ± 20 g) were purchased from the Animal Center of Capital Medical University (ACCMU, Beijing, China). Animals were housed in individual cages with free access to food and water in a room with the illumination (a 12 h light and dark cycle), temperature and relative humidity controlled automatically. Within five days before experiments a jugular vein in each rat under anaesthesia was cannulated by insertion of an indwelling cannula for blood sampling. After fully recovery, the rats were housed with unlimited access to food and water except for fasting 12 h before the experiment with water available. The seven groups of PF/AF and TGP were intragastrically administered to the Sprague-Dawley rats, respectively. All the animal experiments were carried out in accordance with the Guide for the Care and Use of Laboratory Animals as adopted and promulgated by the National Health Ministry of China. The protocols of animal experiments had been approved by the Animal Center of Capital Medical University.
(§2) The UPLC-MS/MS system consisted of a UPLC system (Agilent Technologies, Palo Alto, CA, USA) including a G4220A 1290 binary pump, a G1379A vacuum degasser, a G4226 autosampler, a G1330B 1290 thermostat and triple quadrupole mass spectrometer equipped with an electrospray ionization (ESI) source (Series 6490, Agilent Technologies). The system was controlled with the Agilent Technologies Mass Hunter Workstation B.06.00 software for data acquisition and analysis. The analytes were separated on ZORBAX Eclipse plus C18 column (2.1 mm × 100 mm, 3.5 μm). The mobile phase consisted of 0.2% (v/v) formic acid in water (A) and methanol (B). The mobile phase conditions were 79:21 (A:B, v/v) and the flow rate was 0.4 mL/min. The column temperature was maintained at 30 °C. The sample injection volume was 5 μL. The detection was performed on the triple quadrupole mass spectrometer equipped with electrospray source (Series 6490, Agilent Technologies). High purity nitrogen served as both the nebulizing and sheath gas. The optimized parameters in the positive or negative were as follows: capillary voltage at 3 kV, nozzle voltage at 1.5 kV, gas temperature of 200 °C and sheath gas temperature of 250 °C. The quantification was performed by multiple reaction monitoring (MRM) via precursor-to-product ion pair. AF and IS were detected in positive ion mode while PF was detected in negative ion mode. The parameters were set as follows: m/z 525→449 for PF (fragmentor energy, 380 eV; collision energy, 10 eV; dwell time, 80 ms); m/z 481→105 for AF (fragmentor energy, 380 eV; collision energy, 28 eV; dwell time, 80 ms); m/z 417→297 for IS (fragmentor energy, 380 eV; collision energy, 25 eV; dwell time, 80 ms).
(§3) A 100 μL aliquot of plasma sample was added with 50 μL 1% (v/v) formic acid in water and 50 μL IS working solution (the IS, concentration of 100 ng/mL) and 300 μL acetonitrile. After vortexing for 2 min and centrifugation at 13,000× g for 10 min, the sample was transferred to another Axygen tube and evaporated to dryness in a rotary evaporator at 40 °C. The residue was reconstituted in 100 μL of water–methanol (79:21, v/v), then an aliquot of 5 μL was injected into the UPLC-MS/MS system for analysis.
(§4) The male Sprague-Dawley (SD) rats were randomly divided into seven groups (six rats in each group), which were housed with unlimited access to food and water, except for fasting 12 h before the experiment with water ad libitum. The hypoxic rats were exposed to a fractional concentration of 9.0% O2 after intragastric administration of drug for hypoxia pharmacokinetics experiments. The compound PF (80 mg/kg, normoxia and hypoxia), AF (14 mg/kg, normoxia and hypoxia), combination administration of PF (80 mg/kg) and AF (14 mg/kg), the two dosages of TPG (PF with 80 mg/kg, and AF with 14 mg/kg) were intragastrically administered to the rats, respectively. […]

[3] = Pharmacokinetics in rat plasma after intragastric administration, hypoxia (9.0% O2); type: in vivo, Sprague-Dawley rats; conditions: mean ± SD; for clearance / Cmax / Tmax / half-life: n = 6; for Cmax / Tmax / half-life / AUC(0-t) / MRT last: male, Sprague-Dawley, po; for AUC(0-t): n = 6, read-out: AUC(0→24 h) (converted); for MRT last: n = 6, read-out: MRT(0→24 h) (converted)
Description: as §1, §2, §3, §4

[4] = 14 mg/kg, AF (14 mg/kg) combined with PF (80 mg/kg), intragastric
[5] = 14 mg/kg, AF alone, 14 mg/kg intragastric, normoxia
[6] = 14 mg/kg, AF in TPG (TPG dose with AF 14 mg/kg), intragastric
[7] = AF 14 mg/kg single intragastric
[8] = 80 mg/kg, PF (80 mg/kg) combined with AF (14 mg/kg), intragastric
[9] = 80 mg/kg, PF alone, 80 mg/kg intragastric, normoxia
[10] = 80 mg/kg, PF in TPG (TPG dose with PF 80 mg/kg), intragastric
[11] = PF 80 mg/kg single intragastric

stability in rat plasma [1]: stable | clearance ([2]; AF (14 mg/kg) combined with PF (80 mg/kg), intragastric): 1800 ± 600 mL/min/kg | clearance ([2]; AF alone, 14 mg/kg intragastric, normoxia): 1700 ± 500 mL/min/kg | clearance ([2]; AF in TPG (TPG dose with AF 14 mg/kg), intragastric): 1200 ± 400 mL/min/kg | Cmax [2, 4]: 42.4 ± 18.7 ng/mL | Tmax [2, 4]: 0.695 h | half-life [2, 4]: 2.17 ± 0.978 h | AUC(0-t) [2, 4]: 129 ng·h/mL | MRT last [2, 4]: 2.97 h | Cmax [2, 5]: 70.3 ± 19.1 ng/mL | Tmax [2, 5]: 0.445 h | half-life [2, 5]: 1.99 ± 0.495 h | AUC(0-t) [2, 5]: 142 ng·h/mL | MRT last [2, 5]: 2.25 h | Cmax [2, 6]: 56.9 ± 12.9 ng/mL | Tmax [2, 6]: 0.528 h | half-life [2, 6]: 3.59 ± 1.53 h | AUC(0-t) [2, 6]: 196 ng·h/mL | MRT last [2, 6]: 3.76 h | clearance [3, 7]: 1600 ± 700 mL/min/kg | Cmax [3, 7]: 49.1 ± 16.2 ng/mL | Tmax [3, 7]: 0.583 h | half-life [3, 7]: 2.19 ± 0.958 h | AUC(0-t) [3, 7]: 138 ng·h/mL | MRT last [3, 7]: 2.16 h
SMILES: CC12CC(O)C3CC1(OC1OC(CO)C(O)C(O)C1O)C3(COC(=O)c1ccccc1)C(=O)O2 (centres unmarked) [AF, albiflorin]

stability in rat plasma [1]: stable | clearance ([2]; PF (80 mg/kg) combined with AF (14 mg/kg), intragastric): 1600 ± 400 mL/min/kg | clearance ([2]; PF alone, 80 mg/kg intragastric, normoxia): 2300 ± 400 mL/min/kg | clearance ([2]; PF in TPG (TPG dose with PF 80 mg/kg), intragastric): 1700 ± 600 mL/min/kg | Cmax [2, 8]: 320 ± 121 ng/mL | Tmax [2, 8]: 0.695 h | half-life [2, 8]: 1.63 ± 0.665 h | AUC(0-t) [2, 8]: 865 ng·h/mL | MRT last [2, 8]: 3.33 h | Cmax [2, 9]: 333 ± 63.6 ng/mL | Tmax [2, 9]: 0.583 h | half-life [2, 9]: 1.81 ± 0.63 h | AUC(0-t) [2, 9]: 595 ng·h/mL | MRT last [2, 9]: 1.83 h | Cmax [2, 10]: 291 ± 141 ng/mL | Tmax [2, 10]: 0.388 h | half-life [2, 10]: 3.91 ± 1.6 h | AUC(0-t) [2, 10]: 902 ng·h/mL | MRT last [2, 10]: 4.81 h | clearance [3, 11]: 3050 ± 540 mL/min/kg | Cmax [3, 11]: 177 ± 55.1 ng/mL | Tmax [3, 11]: 0.847 h | half-life [3, 11]: 1.86 ± 0.475 h | AUC(0-t) [3, 11]: 443 ng·h/mL | MRT last [3, 11]: 2.12 h
SMILES: C[C@@]12C[C@@]3(O)O[C@@H](O1)[C@]1(COC(=O)c4ccccc4)[C@H]3C[C@@]12O[C@@H]1O[C@H](CO)[C@@H](O)[C@H](O)[C@H]1O [PF, paeoniflorin]

— paper PMC6273400, “Enhancement of Exposure and Reduction of Elimination for Paeoniflorin or Albiflorin via Co-Administration with Total Peony Glucosides and Hypoxic Pharmacokinetics Comparison” (Molecules, 2016)
